Test results as given in ChEMBL document CHEMBL4190237, “Recent developments in biological activities of indanones” (Eur J Med Chem, 2017).

Key:
[1] = system: Bovine viral diarrhea virus 1; assay: Antiviral activity against BVDV infected in MDBK cells assessed as protection against virus-induced cytopathic effect after 3 days by MTS/PMS assay; format: functional, organism-based; conditions: Bovine viral diarrhea virus isolates and strains, 72 h
[2] = system: Klebsiella pneumoniae; assay: Antibacterial activity against Klebsiella pneumoniae assessed as growth inhibition; format: functional
[3] = system: K562; assay: Cytotoxicity against human K562 cells; format: functional, cell-based
[4] = system: HeLa; assay: Cytotoxicity against human HeLa cells; format: functional, cell-based
[5] = system: Candida albicans; assay: Antifungal activity against Candida albicans MTCC 227 assessed as zone of inhibition at 50 mg/ml after 24 hrs by agar disc-diffusion method; format: functional; conditions: MTCC 227, 24 h, read-out: IZ
[6] = system: Jurkat; assay: Cytotoxicity against human Jurkat cells assessed as cell growth inhibition by MTT assay; format: functional, cell-based
[7] = target: Acetylcholinesterase (Electrophorus electricus, UniProt O42275); assay: Inhibition of electric eel AChE using acetylthiocholine iodide as substrate after 1 min by Ellman's method
Acetylcholinesterase, sequence (O42275 whole entry): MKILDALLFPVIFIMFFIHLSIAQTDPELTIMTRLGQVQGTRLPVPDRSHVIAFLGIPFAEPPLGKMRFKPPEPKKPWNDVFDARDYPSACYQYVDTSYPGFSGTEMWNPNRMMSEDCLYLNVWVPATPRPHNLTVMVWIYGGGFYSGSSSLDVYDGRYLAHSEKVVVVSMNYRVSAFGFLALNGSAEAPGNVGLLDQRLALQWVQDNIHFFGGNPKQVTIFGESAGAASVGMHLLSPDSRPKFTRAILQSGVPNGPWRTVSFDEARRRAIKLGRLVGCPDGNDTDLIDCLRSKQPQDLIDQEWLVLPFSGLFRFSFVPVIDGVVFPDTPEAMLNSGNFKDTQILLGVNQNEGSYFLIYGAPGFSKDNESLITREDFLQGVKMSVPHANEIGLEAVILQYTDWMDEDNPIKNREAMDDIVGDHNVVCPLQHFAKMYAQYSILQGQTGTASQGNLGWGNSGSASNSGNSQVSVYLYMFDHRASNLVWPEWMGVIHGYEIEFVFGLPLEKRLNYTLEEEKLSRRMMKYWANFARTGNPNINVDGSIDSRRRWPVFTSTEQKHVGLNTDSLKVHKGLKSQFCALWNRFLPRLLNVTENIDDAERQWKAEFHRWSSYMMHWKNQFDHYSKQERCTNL

COc1cc2c(cc1OC)/C(=N/NC(N)=S)CC2 was tested, and the EC50 [1] was 5.35 µM.

For COc1cc2c(cc1OC)C(=O)/C(=C/c1cccc(/C=C/c3ccc4ccc(Cl)cc4n3)c1)C2, the “growth inhibition (GI)” value [2] was 11.23%.

For COc1cc(OC)c2c(c1)C(=O)CC2c1ccc(Br)cc1 (configuration not stated), the IC50 [3] was 10 µM and the IC50 [4] was 60 µM.

For COc1cccc(-c2c(C#N)c(N)n(/N=C3\CCc4cc(OC)c(OC)cc43)c(=O)c2C#N)c1, the zone of inhibition at 50000 µg/mL [5] was 23 mm.

COc1cc2c(c(N)c1OC)C/C(=C\c1cc(C)c(O)c(C)c1)C2=O was tested, and the IC50 [6] was 0.001 µM.

NNc1ccc(C(=O)NCCCCCOc2ccc3c(c2)CC(CN2CCC(Cc4ccccc4)CC2)C3=O)cn1 (configuration not stated) gave an IC50 [7] of 1.09 µM.
